Results reported in patent US4400510A, “A-32256 Phenazine antibiotic” (Eli Lilly and Company, priority 1981, dated 1983).
≈ marks a conversion by molar mass, not a printed value. Entries after “also recorded” stand apart in the source; their conditions may differ. Like-named read-outs stand apart in the source and are kept apart here.

How the values were obtained:
[1] = test system: Peptostreptococcus anaerobius; experiment: agar-dilution MIC vs. anaerobic bacteria; assay type: cell-based; settings: strain 1428, Table 6
[2] = test system: Clostridium perfringens; experiment: microbe, parasite or virus in culture; assay type: cell-based; settings: Clostridium perfringens, strain 81; Table 6
[3] = test system: Fusobacterium necrophorum; experiment: agar-dilution MIC vs. anaerobic bacteria; assay type: cell-based; settings: Fusobacterium necrophorum; strain 6054A; Table 6; read-out: MIC
[4] = solubility; assay type: physicochemical
[5] = test system: Propionibacterium acnes; experiment: agar-dilution MIC against Propionibacterium acnes; assay type: cell-based; settings: Cutibacterium acnes, Table 7
Source text: (§1) The agar-dilution procedure described by the International Collaborative Study (ICS) group was used to determine MIC values.
Antibiotic A-32256 is also active against a genus of anaerobic bacteria identified as Propionibacterium acnes, the MIC values being determined by the agar-dilution method, and set forth in Table 7, which follows.

[6] = test system: Bacteroides corrodens; experiment: agar-dilution MIC vs. anaerobic bacteria; assay type: cell-based; settings: Eikenella corrodens; strain 1874; Table 6
[7] = improvement of ruminant feed efficiency; assay type: in vivo
Description: Suitable rates of administration are in the range of from about 10 to about 100 g/ton (from about 11 to about 111 ppm) of feed, or from about 0.25 mg to about 2.9 mg/kg of body weight of the ruminant. The preferred level of administration of A-32256 is from about 0.5 to about 1 mg/kg of body weight of ruminant, or about 50 g/ton of feed.

[8] = test system: Bacteroides vulgatis; experiment: agar-dilution MIC vs. anaerobic bacteria; assay type: cell-based; settings: strain 1211; Table 6
[9] = test system: Streptococcus faecalis; experiment: agar-dilution screening procedure, MIC; assay type: cell-based; settings: Enterococcus faecalis, S. faecalis X66
Description: as §1
(§2) The results obtained from tests of antibiotic A-32256 in the agar-dilution screening procedure are recorded in Table 5, which follows.

[10] = test system: Staphylococcus aureus; experiment: agar-dilution screening procedure, MIC; assay type: cell-based
Description: as §1, §2

[11] = test system: Erwinia amylovora; experiment: agar-dilution screening procedure, MIC; assay type: cell-based
Description: as §1, §2

[12] = test system: Trichomonas vaginalis; experiment: broth dilution assay, antitrichomonal activity; assay type: cell-based; settings: in vitro
[13] = test system: Bacteroides melanogenicus; experiment: agar-dilution MIC vs. anaerobic bacteria; assay type: cell-based; settings: Table 6
[14] = test system: Propionibacterium acnes; experiment: agar-dilution MIC vs. anaerobic bacteria; assay type: cell-based; settings: strain 79; Table 6
[15] = test system: Bacteroides fragilis; experiment: agar-dilution MIC vs. anaerobic bacteria; assay type: cell-based; settings: Table 6
[16] = potentiometric titration; assay type: physicochemical; settings: 66% dimethylformamide in water, initial pH 4.1
Description: Antibiotic A-32256 is a green, crystalline solid having a melting point of about 196°-198° C. The antibiotic has a molecular weight of 402, as determined by electron-impact mass spectrometry, and an approximate elemental analysis as follows: 68.71% carbon, 4.48% hydrogen, 6.93% nitrogen, and 19.21% oxygen. Based on elemental analysis and molecular weight, an empirical formula of C23 H18 N2 O5 is assigned to antibiotic A-32256. […] Antibiotic A-32256 has specific rotation of [α]D^25 +5° (c 0.96, chloroform).

[17] = test system: Actinomyces israellii; experiment: agar-dilution MIC vs. anaerobic bacteria; assay type: cell-based; settings: strain W855; Table 6
Description: as §1
(§3) The MIC was determined by the agar-dilution method.

[18] = test system: Peptococcus prevoti; experiment: agar-dilution MIC vs. anaerobic bacteria; assay type: cell-based
Description: as §1, §3

[19] = test system: Bacteroides thetaiotaomicron; experiment: agar-dilution MIC vs. anaerobic bacteria; assay type: cell-based
Description: as §1, §3

[20] = test system: Clostridium septicum; experiment: agar-dilution MIC vs. anaerobic bacteria; assay type: cell-based; settings: strain 1128, Table 6
Description: as §1, §3

[21] = test system: Peptostreptococcus intermedius; experiment: agar-dilution MIC vs. Peptococcus and Peptostreptococcus species; assay type: cell-based; settings: Table 9
Description: as §1
(§4) The MIC values were determined by the agar-dilution method, and are recorded in Table 9, which follows.

[22] = test system: Peptococcus prevoti; experiment: as above; assay type: cell-based; settings: Table 9
Description: as §1, §4

[23] = test system: Peptostreptococcus anaerobius; experiment: as above; assay type: cell-based; settings: Table 9
Description: as §1, §4

[24] = test system: Fusobacterium symbiosum; experiment: agar-dilution MIC vs. anaerobic bacteria; assay type: cell-based; settings: strain 1470; Table 6
[25] = test system: mosquito; experiment: mosquito larvacide activity; assay type: in vivo; settings: application rate of about 20 ppm
Source text: Antibiotic A-32256 is also active as a mosquito larvacide at an application rate of about 20 ppm.

[26] = test system: Eubacterium aerofaciens; experiment: agar-dilution MIC vs. anaerobic bacteria; assay type: cell-based; settings: strain 1235; Table 6

Cc1cccc(O)c1C(=O)OC(C)c1cccc2nc3c(C(=O)O)cccc3nc12 (centres unmarked) [Antibiotic A-32256, 6-[1-[(2-hydroxy-6-methylbenzoyl)oxy]-ethyl]-1-phenazinecarboxylic acid]
MIC [1]: ≤ 0.5 µg/mL | MIC [2]: 2 µg/mL (≈ 4.97 µM) | MIC [3]: 1 µg/mL (≈ 2.49 µM) | solubility ([4]; acetone): moderately soluble | solubility ([4]; alkaline aqueous solutions): soluble | solubility ([4]; chloroform): easily soluble | solubility ([4]; cyclohexane): sparingly soluble | solubility ([4]; dimethyl sulfoxide): moderately soluble | solubility ([4]; dioxane): moderately soluble | solubility ([4]; ethanol): sparingly soluble | solubility ([4]; ethyl acetate): moderately soluble | solubility ([4]; hexane): sparingly soluble | solubility ([4]; methanol): sparingly soluble | solubility ([4]; pyridine): easily soluble | solubility ([4]; tetrahydrofuran): easily soluble | solubility ([4]; water): not water soluble; also recorded: insoluble | MIC ([5]; P. acnes 44): ≤ 0.015 µg/mL | MIC ([5]; P. acnes 79): ≤ 0.015 µg/mL | MIC ([5]; P. acnes 101): ≤ 0.015 µg/mL | MIC ([5]; P. acnes 103): ≤ 0.015 µg/mL | MIC ([5]; P. acnes 104): ≤ 0.015 µg/mL | MIC ([5]; P. acnes 105): 0.03 µg/mL (≈ 0.0746 µM) | MIC ([5]; P. acnes 106): 0.06 µg/mL (≈ 0.149 µM) | MIC ([5]; P. acnes 107): ≤ 0.015 µg/mL | MIC ([5]; P. acnes 108): 0.03 µg/mL (≈ 0.0746 µM) | MIC ([5]; P. acnes 5170): ≤ 0.015 µg/mL | MIC ([5]; P. acnes 5176): ≤ 0.015 µg/mL | MIC ([5]; P. acnes 5187): ≤ 0.015 µg/mL | MIC ([5]; P. acnes 5191): 0.06 µg/mL (≈ 0.149 µM) | MIC ([5]; P. acnes 5197): ≤ 0.015 µg/mL | MIC ([5]; P. acnes 5226): ≤ 0.015 µg/mL | MIC ([5]; P. acnes 5227): ≤ 0.015 µg/mL | MIC ([5]; P. acnes 5228): ≤ 0.015 µg/mL | MIC ([5]; P. acnes 5229): 0.03 µg/mL (≈ 0.0746 µM) | MIC ([5]; P. acnes 5246): ≤ 0.015 µg/mL | MIC [6]: ≤ 0.5 µg/mL | improvement of ruminant feed efficiency [7]: has shown utility for the improvement of ruminant feed efficiency | MIC [8]: 8 µg/mL (≈ 19.9 µM) | MIC [9]: 4 µg/mL (≈ 9.94 µM) | MIC ([10]; S. aureus 3055, benzylpenicillin-susceptible): 1 µg/mL (≈ 2.49 µM) | MIC ([10]; S. aureus 3074, benzylpenicillin-resistant): < 0.5 µg/mL | MIC [11]: 4 µg/mL (≈ 9.94 µM) | antitrichomonal activity [12]: has shown antitrichomonal activity in vitro | MIC ([13]; Bacteroides, strain 1856/28, read-out: MIC): 16 µg/mL (≈ 39.8 µM) | MIC ([13]; strain 2736): 16 µg/mL (≈ 39.8 µM) | MIC [14]: 2 µg/mL (≈ 4.97 µM) | MIC ([15]; Bacteroides fragilis, strain 111, read-out: MIC): 1 µg/mL (≈ 2.49 µM) | MIC ([15]; Bacteroides fragilis, strain 1936B, read-out: MIC): 1 µg/mL (≈ 2.49 µM) | MIC ([15]; strain 1877): 8 µg/mL (≈ 19.9 µM) | pKa ([16]; pH 4.1, first titratable group): ~5.02 | pKa ([16]; pH 4.1, second titratable group): ~7.2 | MIC [17]: 16 µg/mL (≈ 39.8 µM) | MIC [18]: ≤ 0.5 µg/mL | MIC [19]: ≤ 0.5 µg/mL | MIC [20]: ≤ 0.5 µg/mL | MIC ([21]; Ps. intermedius 1264): 2 µg/mL (≈ 4.97 µM) | MIC ([21]; Ps. intermedius 1524, read-out: MIC): ≤ 0.125 µg/mL | MIC ([21]; Ps. intermedius 1624): 8 µg/mL (≈ 19.9 µM) | MIC ([22]; Pc. prevoti 1281): 2 µg/mL (≈ 4.97 µM) | MIC ([22]; Pc. prevoti 1293): 16 µg/mL (≈ 39.8 µM) | MIC ([22]; Pc. prevoti 1407): 2 µg/mL (≈ 4.97 µM) | MIC ([23]; Peptostreptococcus anaerobius, Ps. anaerobius 1428, read-out: MIC): ≤ 0.125 µg/mL | MIC ([23]; Ps. anaerobius 8): 2 µg/mL (≈ 4.97 µM) | MIC ([23]; Ps. anaerobius 52): 8 µg/mL (≈ 19.9 µM) | MIC ([23]; Ps. anaerobius 59): 0.5 µg/mL (≈ 1.24 µM) | MIC ([23]; Ps. anaerobius 1418): 0.25 µg/mL (≈ 0.621 µM) | MIC ([23]; Ps. anaerobius 1451): 0.5 µg/mL (≈ 1.24 µM) | MIC ([23]; Ps. anaerobius 1477): 8 µg/mL (≈ 19.9 µM) | MIC [24]: 2 µg/mL (≈ 4.97 µM) | mosquito larvacide activity [25]: active | MIC [26]: 2 µg/mL (≈ 4.97 µM)
